Values after ≈ are worked out from the molar mass of the structure shown.

Among the data in ChEMBL document CHEMBL1150739, “Plant antitumor agents, 26. Isolation, structure, and antitumor activity of alkaloids from Anopterus glandulosus” (1987) are EC50 and T/C values, retold here.

Holding throughout (assay type): functional
Experiment [1] deals with KB. In words: Cytotoxicity against human KB cells. The settings on record: read-out: ED50 (the source's name).
Experiment [2] relates to P388. Description: In vivo antitumor activity against mouse P388 cells at 13 mg/kg relative to control.
Experiment [3] deals with P388. Description: In vivo antitumor activity against mouse P388 cells at 6 mg/kg relative to control.
Experiment [4] relates to P388. Description: In vivo antitumor activity against mouse P388 cells at 3.5 mg/kg relative to control.
Experiment [5] has as its system P388. In words: In vivo antitumor activity against mouse P388 cells at 1.5 mg/kg relative to control.
In experiment [6] the test system is P388. Description: In vivo antitumor activity against mouse P388 cells at 4.4 mg/kg relative to control.

One may read the T/C as the ratio of treated to control. As to `C=C1C[C@@]23C[C@H](O)[C@]4(O)[C@@]5(C)C[C@H](O)C[C@@]46[C@@H]2[C@H](OC(=O)/C(C)=C/C)[C@H](OC(=O)/C(C)=C/C)[C@@H]1[C@H]3[C@H]6N(C)C5` [ANOPTERINE], the EC50 in experiment [1] worked out at 0.05 µg/mL (≈ 0.0923 µM). This compound also yielded a T/C in experiment [2] of 122%.
Take `C=C1C[C@@]23C[C@H](O)[C@]4(O)[C@@]5(C)C[C@H](O)C[C@@]46[C@@H]2[C@H](O)[C@H](OC(=O)/C(C)=C/C)[C@@H]1[C@H]3[C@H]6N(C)C5`: in experiment [1], the EC50 came to 1 µg/mL (≈ 2.18 µM). The same compound yielded a T/C in experiment [3] of 127%.
For the compound `C=C1C[C@]23[C@H]4[C@H]1[C@@H](OC(=O)/C(C)=C/C)[C@@H](OC(=O)/C(C)=C/CO)[C@H]2[C@@]12C[C@@H](O)C[C@@](C)(CN(C)[C@H]41)[C@@]2(O)[C@@H](O)[C@@H]3O`, in experiment [1], the EC50 came to 0.05 µg/mL (≈ 0.0872 µM). In experiment [4], this compound displayed a T/C of 120%.
For `C=C1C[C@]23[C@H]4[C@H]1[C@@H](OC(=O)/C(C)=C/C)[C@@H](OC(=O)c1ccccc1)[C@H]2[C@@]12C[C@@H](O)C[C@@](C)(CN(C)[C@H]41)[C@@]2(O)[C@@H](O)[C@@H]3O`, the EC50 in experiment [1] was 0.001 µg/mL (≈ 0.00173 µM). The T/C in experiment [5] is 125%.
Take `C=C1C[C@]23[C@H]4[C@H]1[C@@H](OC(=O)/C(C)=C/C)[C@@H](OC(=O)/C(C)=C/C)[C@H]2[C@@]12C[C@@H](O)C[C@@](C)(CN(C)[C@H]41)[C@@]2(O)[C@@H](O)[C@@H]3O`: the EC50 in experiment [1] is 0.001 µg/mL (≈ 0.00179 µM). Further, in experiment [6], the T/C is given as 140%.
